According to PubChem BioAssay AID248 (DTP/NCI, 2004):
Where “and” joins values, the source holds several entries; their conditions need not be identical. Equal entries are not always repeated. Toxic doses and inconclusive results are not listed.

Tested on: L1210 leukemia ip in BDF1 mice, survival T/C
Test: NCI In Vivo Anticancer Drug Screen. Data for tumor model L1210 Leukemia (intraperitoneal) in B6D2F1 (BDF1) mice
Conditions: endpoint: mean survival time, higher = longer survival
In short: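 Mice bearing the transplanted tumor received compound or vehicle. Survival of the treated group was divided by that of the vehicle-treated control group to give the ratio.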

[1] = dose: 100.0 mg/kg/injection, schedule: Q01DX009 (ip), vehicle: saline
[2] = dose: 100.0 mg/kg/injection, schedule: Q04DX003 (ip), vehicle: saline
[3] = dose: 200.0 mg/kg/injection, schedule: Q01DX009 (ip), vehicle: saline
[4] = dose: 200.0 mg/kg/injection, schedule: Q04DX003 (ip), vehicle: saline
[5] = dose: 400.0 mg/kg/injection, schedule: Q04DX003 (ip), vehicle: saline
[6] = dose: 100.0 mg/kg/injection, schedule: Q04DX002 (ip), vehicle: Klucel (hydroxypropylcellulose) (HPC)
[7] = dose: 200.0 mg/kg/injection, schedule: Q04DX002 (ip), vehicle: Klucel (hydroxypropylcellulose) (HPC)
[8] = dose: 75.0 mg/kg/injection, schedule: Q01DX001 (ip), vehicle: saline
[9] = dose: 100.0 mg/kg/injection, schedule: Q01DX009 (ip), vehicle: saline with Tween-80
[10] = dose: 100.0 mg/kg/injection, schedule: Q04DX003 (ip), vehicle: saline with Tween-80
[11] = dose: 200.0 mg/kg/injection, schedule: Q01DX009 (ip), vehicle: saline with Tween-80
[12] = dose: 200.0 mg/kg/injection, schedule: Q04DX003 (ip), vehicle: saline with Tween-80
[13] = dose: 400.0 mg/kg/injection, schedule: Q01DX009 (ip), vehicle: saline with Tween-80
[14] = dose: 100.0 mg/kg/injection, schedule: Q04DX002 (ip), vehicle: saline with Tween-80
[15] = dose: 200.0 mg/kg/injection, schedule: Q04DX002 (ip), vehicle: saline with Tween-80
[16] = dose: 400.0 mg/kg/injection, schedule: Q04DX002 (ip), vehicle: saline with Tween-80

With CN=C(NC)c1ccc(NC(=O)c2ccc(C(=O)Nc3ccc(C(=NC)NC)cc3)cc2)cc1 the T/C (dose: 0.23 mg/kg/injection, schedule: Q01DX Z (ip), vehicle: methylcellulose (MC)) was 96 % of control and 124 % of control, the T/C (dose: 0.9 mg/kg/injection, schedule: Q01DX Z (ip), vehicle: methylcellulose (MC)) was 110 % of control and 177 % of control and 205 % of control and the T/C (dose: 1.87 mg/kg/injection, schedule: Q01DX Z (ip), vehicle: methylcellulose (MC)) was 150 % of control. For the same molecule, the T/C (dose: 1.9 mg/kg/injection, schedule: Q01DX Z (ip), vehicle: methylcellulose (MC)) was 124 % of control, the T/C (dose: 3.75 mg/kg/injection, schedule: Q01DX Z (ip), vehicle: methylcellulose (MC)) was 161 % of control and the T/C (dose: 7.5 mg/kg/injection, schedule: Q01DX Z (ip), vehicle: methylcellulose (MC)) was 160 % of control. The T/C (dose: 15.0 mg/kg/injection, schedule: Q01DX Z (ip), vehicle: methylcellulose (MC)) was 124 % of control, the T/C (dose: 15.0 mg/kg/injection, schedule: Q01DX Z (oral), vehicle: carboxymethylcellulose (CMC)) was 111 % of control and the T/C (dose: 30.0 mg/kg/injection, schedule: Q01DX Z (ip), vehicle: methylcellulose (MC)) was 108 % of control. For the same molecule, the T/C (dose: 30.0 mg/kg/injection, schedule: Q01DX Z (oral), vehicle: carboxymethylcellulose (CMC)) was 102 % of control, the T/C (dose: 60.0 mg/kg/injection, schedule: Q01DX Z (oral), vehicle: carboxymethylcellulose (CMC)) was 107 % of control and the T/C (dose: 120.0 mg/kg/injection, schedule: Q01DX Z (oral), vehicle: carboxymethylcellulose (CMC)) was 96 % of control. The T/C (dose: 240.0 mg/kg/injection, schedule: Q01DX Z (oral), vehicle: carboxymethylcellulose (CMC)) was 115 % of control and the T/C (dose: 480.0 mg/kg/injection, schedule: Q01DX Z (oral), vehicle: carboxymethylcellulose (CMC)) was 113 % of control.

With CCC1C(=O)OC2OC(c3ccccc3)(c3ccccc3)NC21 (centres undefined) the T/C (dose: 100.0 mg/kg/injection, schedule: Q01DX001 (ip), vehicle: carboxymethylcellulose (CMC)) was 88 % of control, the T/C (dose: 200.0 mg/kg/injection, schedule: Q01DX001 (ip), vehicle: carboxymethylcellulose (CMC)) was 88 % of control and the T/C (dose: 400.0 mg/kg/injection, schedule: Q01DX001 (ip), vehicle: carboxymethylcellulose (CMC)) was 90 % of control.

CC(=O)OC1CCC2(C)C(=CC(=O)C3=C2CCC2(C)C3CCC2C(C)/C=C/C(C)C(C)C)C1 (centres undefined) was tested, and the T/C [1] was 92 % of control, the T/C [2] was 88 % of control and the T/C [3] was 95 % of control. The T/C [4] was 97 % of control, the T/C (dose: 400.0 mg/kg/injection, schedule: Q01DX009 (ip), vehicle: saline) was 92 % of control and the T/C [5] was 91 % of control.

With COc1ccccc1C(=O)OCC(=O)c1ccc(-c2ccccc2)cc1 the T/C (dose: 200.0 mg/kg/injection, schedule: Q01DX001 (ip), vehicle: saline) was 91 % of control and the T/C (dose: 400.0 mg/kg/injection, schedule: Q01DX001 (ip), vehicle: saline) was 94 % of control.

For N#CC(Nc1cc(=O)[nH]c(=O)[nH]1)c1ccccc1 (centres undefined), the T/C [6] was 105 % of control and the T/C [7] was 108 % of control.

For Cc1cc(N=Nc2cccc([N+](=O)[O-])c2)cc(C(=O)O)c1O, the T/C (dose: 6.25 mg/kg/injection, schedule: Q01DX001 (ip), vehicle: Klucel (hydroxypropylcellulose) (HPC)) was 102 % of control, the T/C (dose: 12.5 mg/kg/injection, schedule: Q01DX001 (ip), vehicle: Klucel (hydroxypropylcellulose) (HPC)) was 94 % of control and the T/C (dose: 25.0 mg/kg/injection, schedule: Q01DX001 (ip), vehicle: Klucel (hydroxypropylcellulose) (HPC)) was 89 % of control.

In the case of CCOC(=O)C(C)Oc1ccccc1[N+](=O)[O-] (centres undefined), the T/C (dose: 100.0 mg/kg/injection, schedule: Q01DX009 (ip), vehicle: Klucel (hydroxypropylcellulose) (HPC)) was 93 % of control, the T/C (dose: 200.0 mg/kg/injection, schedule: Q01DX009 (ip), vehicle: Klucel (hydroxypropylcellulose) (HPC)) was 102 % of control and the T/C (dose: 400.0 mg/kg/injection, schedule: Q01DX009 (ip), vehicle: Klucel (hydroxypropylcellulose) (HPC)) was 102 % of control.

For O=C(O)CSc1cc(-c2ccc(Cl)cc2)s[s+]1, the T/C (dose: 3.12 mg/kg/injection, schedule: Q01DX009 (ip), vehicle: water) was 98 % of control, the T/C (dose: 6.25 mg/kg/injection, schedule: Q01DX009 (ip), vehicle: water) was 97 % of control and the T/C (dose: 12.5 mg/kg/injection, schedule: Q01DX009 (ip), vehicle: water) was 96 % of control. The T/C (dose: 12.5 mg/kg/injection, schedule: Q04DX003 (ip), vehicle: water) was 94 % of control, the T/C (dose: 25.0 mg/kg/injection, schedule: Q04DX003 (ip), vehicle: water) was 93 % of control and the T/C (dose: 50.0 mg/kg/injection, schedule: Q04DX003 (ip), vehicle: water) was 86 % of control.

Cc1nc(N)[nH]c(=O)c1CCCc1ccccc1 was tested, and the T/C (dose: 100.0 mg/kg/injection, schedule: Q01DX009 (ip), vehicle: gum acacia) was 103 % of control, the T/C (dose: 200.0 mg/kg/injection, schedule: Q01DX009 (ip), vehicle: gum acacia) was 94 % of control and the T/C (dose: 400.0 mg/kg/injection, schedule: Q01DX009 (ip), vehicle: gum acacia) was 95 % of control.

C=CCC1(OC(C)=O)CCN(C)CC1 was tested, and the T/C [8] was 113 % of control.

For CCCN(CCC)CCCCCO, the T/C (dose: 50.0 mg/kg/injection, schedule: Q01DX009 (ip), vehicle: saline with Tween-80) was 102 % of control, the T/C [9] was 106 % of control and the T/C [10] was 94 % of control. The T/C [11] was 102 % of control and the T/C [12] was 102 % of control.

In the case of COc1cccc(OC)c1C1(O)c2c(OC)cccc2Oc2cccc(OC)c21, the T/C [9] was 93 % of control, the T/C [11] was 90 % of control and the T/C [13] was 90 % of control.

OC(C=S)CS (centres undefined) was tested, and the T/C [14] was 95 % of control, the T/C [15] was 92 % of control and the T/C [16] was 95 % of control.

For CC(C)c1ccc(/C=C/C(=O)c2ccc(F)cc2)cc1, the T/C [9] was 90 % of control, the T/C [14] was 97 % of control and the T/C [11] was 90 % of control. The T/C [15] was 86 % of control, the T/C [13] was 93 % of control and the T/C [16] was 97 % of control.

In the case of COc1cc2cc3c4cc(OC)c(OC)cc4cc[n+]3c(/C=C/c3cc(OC)c(OC)c(OC)c3)c2cc1OC, the T/C [14] was 96 % of control and 106 % of control, the T/C [10] was 94 % of control and the T/C [15] was 97 % of control and 104 % of control. For the same molecule, the T/C [12] was 96 % of control, the T/C [16] was 104 % of control and 92 % of control and the T/C (dose: 400.0 mg/kg/injection, schedule: Q04DX003 (ip), vehicle: saline with Tween-80) was 91 % of control.

In the case of Nc1ccccc1S(N)(=O)=O, the T/C (dose: 25.0 mg/kg/injection, schedule: Q04DX002 (ip), vehicle: Klucel (hydroxypropylcellulose) (HPC)) was 97 % of control, the T/C (dose: 50.0 mg/kg/injection, schedule: Q04DX002 (ip), vehicle: Klucel (hydroxypropylcellulose) (HPC)) was 97 % of control and the T/C [6] was 101 % of control and 120 % of control. For the same molecule, the T/C [7] was 97 % of control and 100 % of control and the T/C (dose: 400.0 mg/kg/injection, schedule: Q04DX002 (ip), vehicle: Klucel (hydroxypropylcellulose) (HPC)) was 113 % of control.

Cc1ccc([P+](Cc2ccccc2)(c2ccc(C)cc2)c2ccc(C)cc2)cc1 was tested, and the T/C [8] was 97 % of control and the T/C (dose: 150.0 mg/kg/injection, schedule: Q01DX001 (ip), vehicle: saline) was 97 % of control.

C/C(=N/N(C)C)c1ccc([N+](=O)[O-])cc1 was tested, and the T/C [1] was 113 % of control and the T/C [3] was 89 % of control.

For c1ccc(CN2CCn3nccc32)cc1, the T/C (dose: 25.0 mg/kg/injection, schedule: Q01DX009 (ip), vehicle: other) was 104 % of control, the T/C (dose: 50.0 mg/kg/injection, schedule: Q01DX009 (ip), vehicle: other) was 96 % of control and the T/C (dose: 100.0 mg/kg/injection, schedule: Q01DX009 (ip), vehicle: other) was 104 % of control. For the same molecule, the T/C (dose: 200.0 mg/kg/injection, schedule: Q01DX009 (ip), vehicle: other) was 95 % of control.

For CCOC(=O)c1ccc[n+]([O-])c1, the T/C [2] was 94 % of control, the T/C [4] was 95 % of control and the T/C [5] was 94 % of control.

In the case of CC(=O)c1cc(I)c(O)c2ncccc12, the T/C (dose: 6.25 mg/kg/injection, schedule: Q01DX009 (ip), vehicle: saline with Tween-80) was 91 % of control, the T/C (dose: 6.25 mg/kg/injection, schedule: Q04DX003 (ip), vehicle: saline with Tween-80) was 95 % of control and the T/C (dose: 12.5 mg/kg/injection, schedule: Q01DX009 (ip), vehicle: saline with Tween-80) was 91 % of control. The T/C (dose: 12.5 mg/kg/injection, schedule: Q04DX003 (ip), vehicle: saline with Tween-80) was 106 % of control, the T/C (dose: 25.0 mg/kg/injection, schedule: Q01DX009 (ip), vehicle: saline with Tween-80) was 89 % of control and the T/C (dose: 25.0 mg/kg/injection, schedule: Q04DX003 (ip), vehicle: saline with Tween-80) was 116 % of control and 91 % of control. For the same molecule, the T/C [10] was 107 % of control.
